Read-outs that look alike come from different tables or passages of the source.
Key:
OVCAR-3 cells = test: OVCAR-3 cell proliferation (Cell Titer-Glo, 10 days); format: cell-based, human
Summary of the method: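 IC50 was fitted by nonlinear regression of percent inhibition versus the 0.1% DMSO control. Luminescence was read with Cell Titer-Glo after 10 days of co-culture of logarithmic-phase cells (400/well) with compound at 0.12 nM–10 μM final, in medium with 20% fetal bovine serum and 0.01 mg/mL insulin.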

PK study in ICR mice = format: in vivo, mouse; conditions: both sexes, mouse, plasma, route and dose not given
Method: 6 ICR mice (male/female) were divided into two groups, administered orally and intravenously, respectively, with 3 mice/group. The mice were fasted for 10-14 hours prior to dosing with free access to water.
The test compound was weighed according to the administration dose, and prepared into a dose formulation at appropriate concentrations (for rats and mice, intravenous and oral administration at a volume of 5 mL/kg and 10 mL/kg, respectively), wherein the intravenous injection was a clear solution, and the oral preparation was a clear solution or a homogeneous suspension.
Animals were dosed by intravenous injection and oral gavage, and blood samples were collected at 0.033, 0.083, 0.25, 0.5, 1, 2, 4, 8, and 24 h after intravenous administration and 0.083, 0.25, 0.5, 1, 2, 4, 6, 8, and 24 h after oral administration. Whole blood was centrifuged at 6800 g for 6 min at 4° C. and the top plasma was stored in a −80° C. freezer for later analysis.
The DMSO stock solution of the test compound was diluted into a series of working solutions with a methanol or an acetonitrile solution, and added to a blank plasma matrix, and standard curves were generated and quality control samples were prepared. An appropriate volume of the plasma sample was taken and a suitable multiple of methanol or acetonitrile containing an internal standard was added for protein precipitation based on the response. After centrifugation of all samples at 18000 g for 10 min at 4° C., an appropriate amount of supernatant was taken for LC-MS/MS injection analysis.
Drug concentration-time curves in plasma were plotted according to test concentrations, and pharmacokinetic parameters were calculated using noncompartmental analysis by WinNonlin software, including: half-life (T½), area under the concentration-time curve from time zero to time t (AUCO-t), clearance (CL), volume of distribution at steady state (Vss) and bioavailability (F), with some of the test results shown in Table 4.

KIF18A = KIF18A (Homo sapiens (Human), UniProt Q8NI77); test: KIF18A ATPase activity under tubulin stimulation (ADP-Glo assay); format: biochemical; conditions: KIF18A 30 nM, ATP 150 μM, pig microtubules
Sequence of KIF18A (Q8NI77 whole entry): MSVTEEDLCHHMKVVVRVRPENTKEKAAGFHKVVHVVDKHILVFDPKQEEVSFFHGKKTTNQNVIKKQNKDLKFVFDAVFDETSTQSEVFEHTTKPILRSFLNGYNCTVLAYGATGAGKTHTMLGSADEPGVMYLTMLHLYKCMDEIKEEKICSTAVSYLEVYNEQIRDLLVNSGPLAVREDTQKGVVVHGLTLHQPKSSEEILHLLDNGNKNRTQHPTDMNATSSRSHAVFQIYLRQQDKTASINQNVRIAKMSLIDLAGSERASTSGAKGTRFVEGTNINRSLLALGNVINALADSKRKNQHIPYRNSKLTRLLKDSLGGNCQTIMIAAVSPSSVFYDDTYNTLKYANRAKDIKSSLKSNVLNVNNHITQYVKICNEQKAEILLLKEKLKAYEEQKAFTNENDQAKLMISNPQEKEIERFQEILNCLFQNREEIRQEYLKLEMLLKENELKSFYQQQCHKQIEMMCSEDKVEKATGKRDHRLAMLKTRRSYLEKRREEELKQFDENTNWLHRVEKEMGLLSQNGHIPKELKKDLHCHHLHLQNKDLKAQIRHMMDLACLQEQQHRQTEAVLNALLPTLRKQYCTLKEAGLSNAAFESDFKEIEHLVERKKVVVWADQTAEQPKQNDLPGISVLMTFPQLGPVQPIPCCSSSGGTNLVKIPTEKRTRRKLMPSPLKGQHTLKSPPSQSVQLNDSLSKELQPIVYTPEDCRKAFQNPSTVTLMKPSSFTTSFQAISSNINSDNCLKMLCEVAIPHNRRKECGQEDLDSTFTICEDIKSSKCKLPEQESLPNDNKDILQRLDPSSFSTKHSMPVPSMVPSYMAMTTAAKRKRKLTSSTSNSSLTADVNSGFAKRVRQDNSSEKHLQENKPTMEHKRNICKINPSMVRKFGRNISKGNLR
Sequence of KIF18A (P02550 whole entry partner): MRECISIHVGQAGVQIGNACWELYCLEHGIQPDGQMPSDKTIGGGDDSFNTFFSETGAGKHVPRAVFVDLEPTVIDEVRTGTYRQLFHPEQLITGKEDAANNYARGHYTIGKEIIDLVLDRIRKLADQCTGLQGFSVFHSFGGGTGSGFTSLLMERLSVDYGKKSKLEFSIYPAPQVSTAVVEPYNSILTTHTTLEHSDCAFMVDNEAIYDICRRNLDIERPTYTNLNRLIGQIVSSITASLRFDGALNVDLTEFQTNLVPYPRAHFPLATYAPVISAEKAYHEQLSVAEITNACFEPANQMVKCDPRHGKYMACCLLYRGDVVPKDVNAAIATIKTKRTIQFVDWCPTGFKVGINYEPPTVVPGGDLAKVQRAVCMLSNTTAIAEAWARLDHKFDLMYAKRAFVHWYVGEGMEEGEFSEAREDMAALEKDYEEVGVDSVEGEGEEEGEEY
Sequence of KIF18A (P02554 whole entry partner): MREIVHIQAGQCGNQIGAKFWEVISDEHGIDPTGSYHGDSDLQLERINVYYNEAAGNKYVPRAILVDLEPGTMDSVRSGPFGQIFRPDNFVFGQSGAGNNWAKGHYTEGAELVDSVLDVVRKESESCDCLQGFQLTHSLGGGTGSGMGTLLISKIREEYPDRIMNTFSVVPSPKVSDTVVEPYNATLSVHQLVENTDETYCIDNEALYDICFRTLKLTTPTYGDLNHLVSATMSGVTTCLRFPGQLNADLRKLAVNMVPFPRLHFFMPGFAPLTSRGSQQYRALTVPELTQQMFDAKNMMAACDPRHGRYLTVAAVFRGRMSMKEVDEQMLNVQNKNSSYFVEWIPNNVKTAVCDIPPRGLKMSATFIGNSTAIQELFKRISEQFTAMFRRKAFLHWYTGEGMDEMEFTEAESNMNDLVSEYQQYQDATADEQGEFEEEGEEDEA

In the case of `CCOc1ccc(NC(=O)c2ccc(NS(=O)(=O)CCO)cc2N2CCC3(CC2)CC3)c2cc3n(c12)CC(C)(C)OC3` [Example 535, N-(6-ethoxy-3,3-dimethyl-3,4-dihydro-1H-[1,4]oxazino[4,3-a]indol-9-yl)-4-((2-hydroxyethyl)sulfonamido)-2-(6-azaspiro[2.5]octan-6-yl)benzamide], the IC50 (OVCAR-3 cells; Homo sapiens, OVCAR-3, 240 h) is reported as ≤ 0.05 µM, the AUC (PK study in ICR mice; read-out: AUC) is reported as 101 µg·h/mL and the Cmax (PK study in ICR mice; read-out: Cmax) is reported as 8370 ng/mL. The IC50 (KIF18A) was 0.05 to 0.5 µM.

Molecule `CC(C)Oc1ccc(NC(=O)c2ccc(NS(=O)(=O)CCO)cc2N2CCC3(CC2)CC3)c2cc3n(c12)CC(C)(C)OC3` [Example 531, 4-((2-hydroxyethyl)sulfonamido)-N-(6-isopropoxy-3,3-dimethyl-3,4-dihydro-1H-[1,4]oxazinyl[4,3-a]indol-9-yl)-2-(6-azaspiro[2.5]oct-6-yl)benzamide] has an IC50 (OVCAR-3 cells; Homo sapiens, OVCAR-3, 240 h) of 0.05 to 0.5 µM and an IC50 (KIF18A) of 0.05 to 0.5 µM.

In the case of `CCNC(=O)c1ccc(NC(=O)c2ccc(NS(=O)(=O)CCO)cc2N2CCC(=C(F)F)CC2)c2cc3n(c12)CC(C)(C)OC3` [Example 528], the IC50 (OVCAR-3 cells; Homo sapiens, OVCAR-3, 240 h) is reported as ≤ 0.05 µM and the IC50 (KIF18A) is reported as 0.05 to 0.5 µM.

For `COc1ccc(NC(=O)c2ccc(NS(=O)(=O)CCO)cc2N2CCC3(CC2)CC3)c2cc3n(c12)CCC(F)(F)C3OC` (stereo not shown) [Example 479, N-(8,8-difluoro-4,9-dimethoxy-6,7,8,9-tetrahydropyridino[1,2-a]indol-1-yl)-4-((2-hydroxyethyl)sulfonamido)-2-(6-azaspiro[2.5]oct-6-yl)benzamide], the IC50 (OVCAR-3 cells; Homo sapiens, OVCAR-3, 240 h) was 0.05 to 0.5 µM and the IC50 (KIF18A) was 0.05 to 0.5 µM.

For `COc1ccc(NC(=O)c2ccc(NS(=O)(=O)CCO)cc2N2CCC(=C(F)F)CC2)c2cc3n(c12)CCC(F)(F)C3` [Example 477, N-(8,8-difluoro-4-methoxy-6,7,8,9-tetrahydropyridino[1,2-a]indol-1-yl)-2-(4-(difluoromethylene)piperidin-1-yl)-4-((2-hydroxyethyl)sulfonamido)benzamide], the IC50 (OVCAR-3 cells; Homo sapiens, OVCAR-3, 240 h) was ≤ 0.05 µM and the IC50 (KIF18A) was 0.05 to 0.5 µM.

`O=C(Nc1cccc2c1ccn2CC1(F)CC1)c1ccc(NS(=O)(=O)CCO)cc1N1CCC2(CC1)CC2` [Example 283, N-(1-((1-fluorocyclopropyl)methyl)-1H-indol-4-yl)-4-((2-hydroxyethyl)sulfonamido)-2-(6-azaspiro[2.5]oct-6-yl)benzamide] gave an IC50 (OVCAR-3 cells; Homo sapiens, OVCAR-3, 240 h) of 0.05 to 0.5 µM and an IC50 (KIF18A) of 0.05 to 0.5 µM.

With `Cn1cnc(-c2ccc(NC(=O)c3ccc(NS(=O)(=O)CCO)cc3N3CCC4(CC3)CC4)c3cc4n(c23)CC(C)(C)OC4)c1` [Example 529] the IC50 (OVCAR-3 cells; Homo sapiens, OVCAR-3, 240 h) was ≤ 0.05 µM and the IC50 (KIF18A) was 0.05 to 0.5 µM.

In the case of `CC1(C)Cn2c(cc3c(NC(=O)c4ccc(NS(=O)(=O)CCO)cc4N4CCC(=C(F)F)CC4)ccc(F)c32)CO1` [Example 520, 2-(4-(difluoromethylene)piperidin-1-yl)-N-(6-fluoro-3,3-dimethyl-3,4-dihydro-1H-[1,4]oxazino[4,3-a]indol-9-yl)-4-((2-hydroxyethyl)sulfonamido)benzamide], the IC50 (OVCAR-3 cells; Homo sapiens, OVCAR-3, 240 h) is reported as 0.05 to 0.5 µM and the IC50 (KIF18A) is reported as 0.05 to 0.5 µM.

For `CC1Cn2c(cc3c(NC(=O)c4ccc(NS(=O)(=O)CCO)cc4N4CCC5(CC4)CC5)cccc32)C(C)O1` (single isomer, unassigned) [Compound 312-P1, N-(1,3-dimethyl-3,4-dihydro-1H-[1,4]oxazino[4,3-a]indol-9-yl)-4-((2-hydroxyethyl)sulfonamido)-2-(6-azaspiro[2.5]oct-6-yl)benzamide], the IC50 (OVCAR-3 cells; Homo sapiens, OVCAR-3, 240 h) was 0.05 to 0.5 µM and the IC50 (KIF18A) was 0.05 to 0.5 µM.

In the case of `CCS(=O)(=O)Nc1ccc(C(=O)Nc2cccc3c2cc2n3CCCC2O)c(N2CCC3(CC2)CC3)c1` (stereo not shown) [Example 373, 4-(ethylsulfonamido)-N-(9-hydroxy-6,7,8,9-tetrahydropyridino[1,2-a]indol-1-yl)-2-(6-azaspiro[2.5]oct-6-yl)benzamide], the IC50 (OVCAR-3 cells; Homo sapiens, OVCAR-3, 240 h) is reported as ≤ 0.05 µM and the IC50 (KIF18A) is reported as ≤ 0.05 µM.

With `CC(C)(O)Cn1ccc2c(NC(=O)c3ccc(NS(=O)(=O)CCO)cc3N3CCC4(CC3)CC4)cccc21` [Example 279, N-(1-(2-hydroxy-2-methylpropyl)-1H-indol-4-yl)-4-((2-hydroxyethyl)sulfonamido)-2-(6-azaspiro[2.5]oct-6-yl)benzamide] the IC50 (OVCAR-3 cells; Homo sapiens, OVCAR-3, 240 h) was 0.5 to 5 µM and the IC50 (KIF18A) was 0.05 to 0.5 µM.

For `O=C(Nc1cc(F)cc2c1nc1n2CCOC1)c1ccc(NS(=O)(=O)CCO)cc1N1CCC2(CC1)CC2` [Example 368, N-(7-fluoro-3,4-dihydro-1H-benzo[4,5]imidazo[2,1-c][1,4]oxazin-9-yl)-4-((2-hydroxyethyl)sulfonamido)-2-(6-azaspiro[2.5]oct-6-yl)benzamide], the IC50 (OVCAR-3 cells; Homo sapiens, OVCAR-3, 240 h) was ≤ 0.05 µM and the IC50 (KIF18A) was ≤ 0.05 µM.

Molecule `COC1c2cc3c(NC(=O)c4ccc(NS(=O)(=O)CCO)cc4N4CCC5(CC4)CC5)ccc(C#N)c3n2CCC1(F)F` (stereo not shown) [Compound 428, N-(4-cyano-8,8-difluoro-9-methoxy-6,7,8,9-tetrahydropyridino[1,2-a]indol-1-yl)-4-((2-hydroxyethyl)sulfonamido)-2-(6-azaspiro[2.5]oct-6-yl)benzamide] has an IC50 (OVCAR-3 cells; Homo sapiens, OVCAR-3, 240 h) of 0.05 to 0.5 µM and an IC50 (KIF18A) of 0.05 to 0.5 µM.

In the case of `O=C(Nc1cccc2c1cc1n2CCOC1=O)c1ccc(NS(=O)(=O)CCO)cc1N1CCC2(CC1)CC2` [Example 346, 4-((2-hydroxyethyl)sulfonamido)-N-(1-oxo-3,4-dihydro-1H-[1,4]oxazino[4,3-a]indol-9-yl)-2-(6-azaspiro[2.5]oct-6-yl)benzamide], the IC50 (OVCAR-3 cells; Homo sapiens, OVCAR-3, 240 h) is reported as > 5 µM and the IC50 (KIF18A) is reported as 0.05 to 0.5 µM.

`CC(C)Oc1ccc(NC(=O)c2ccc(NS(=O)(=O)CCO)cc2N2CCC(=C(F)F)CC2)c2cc3n(c12)CC(C)(C)OC3` [Example 532, 2-(4-(difluoromethylene)piperidin-1-yl)-4-((2-hydroxyethyl)sulfonamido)-N-(6-isopropoxy-3,3-dimethyl-3,4-dihydro-1H-[1,4]oxazinyl[4,3-a]indol-9-yl)benzamide] gave an IC50 (OVCAR-3 cells) of 0.05 to 0.5 µM and an IC50 (KIF18A) of 0.05 to 0.5 µM.

Molecule `Cc1ccc(NC(=O)c2ccc(NS(=O)(=O)CCO)cc2N2CCC(=C(F)F)CC2)c2cc3n(c12)CC(C)(C)OC3` [Example 526] has an IC50 (OVCAR-3 cells; Homo sapiens, OVCAR-3, 240 h) of 0.05 to 0.5 µM and an IC50 (KIF18A) of 0.05 to 0.5 µM.

With `COc1ccc(NC(=O)c2ccc(NS(=O)(=O)CCO)cc2N2CCC3(CC2)CC3)c2cc3n(c12)CC(C)OC3C` (stereo not shown) [Example 449] the IC50 (OVCAR-3 cells) was ≤ 0.05 µM and the IC50 (KIF18A) was 0.05 to 0.5 µM.

For `CCS(=O)(=O)Nc1ccc(C(=O)Nc2cccc3c2cc2n3CCCC2O)c(N2CCC3(CC2)CC3)c1` (single isomer, unassigned) [Example 373-P1, 4-(ethylsulfonamido)-N-(9-hydroxy-6,7,8,9-tetrahydropyridino[1,2-a]indol-1-yl)-2-(6-azaspiro[2.5]oct-6-yl)benzamide], the IC50 (OVCAR-3 cells; Homo sapiens, OVCAR-3, 240 h) was 0.05 to 0.5 µM and the IC50 (KIF18A) was 0.05 to 0.5 µM.

With `CCS(=O)(=O)Nc1ccc(C(=O)Nc2cccc3c2cc2n3CCC(F)(F)C2O)c(N2CCC3(CC2)CC3)c1` (stereo not shown) [Compound 382, N-(8,8-difluoro-9-hydroxy-6,7,8,9-tetrahydropyridino[1,2-a]indol-1-yl)-4-ethyl sulfonamido-2-(6-azaspiro[2.5]octan-6-yl)benzamide] the IC50 (OVCAR-3 cells) was ≤ 0.05 µM and the IC50 (KIF18A) was ≤ 0.05 µM.

Molecule `[2H]C([2H])([2H])OC1c2cc3c(NC(=O)c4ccc(NS(=O)(=O)CCO)cc4N4CCC(=C(F)F)CC4)cccc3n2CCC1(F)F` (single isomer, unassigned) [Compound 386-P1, N-(8,8-difluoro-9-(methoxy-d3)-6,7,8,9-tetrahydropyridino[1,2-a]indol-1-yl)-2-(4-(difluoromethylene)piperidin-1-yl)-4-((2-hydroxyethyl)sulfonamido)benzamide] has an IC50 (OVCAR-3 cells) of 0.5 to 5 µM and an IC50 (KIF18A) of 0.5 to 5 µM.

For `O=C(Nc1cc(F)cc2c1cc1n2CCOC1)c1ccc(NS(=O)(=O)CCO)cc1N1CCC(=C(F)F)CC1` [Example 367, 2-(4-(difluoromethylene)piperidin-1-yl)-N-(7-fluoro-3,4-dihydro-1H-[1,4]oxazino[4,3-a]indol-9-yl)-4-((2-hydroxyethyl)sulfonamido)benzamide], the IC50 (OVCAR-3 cells; Homo sapiens, OVCAR-3, 240 h) was 0.05 to 0.5 µM and the IC50 (KIF18A) was ≤ 0.05 µM.

For `O=C(Nc1cccc2c1OCC1CC(F)(F)CCN21)c1ccc(NS(=O)(=O)CCO)cc1N1CCC2(CC1)CC2` (stereo not shown) [Compound 400, N-(8,8-difluoro-6,6a,7,8,9,10-hexahydrobenzo[b]pyrido[1,2-d][1,4]oxazin-4-yl)-4-((2-hydroxyethyl)sulfonamido)-2-(6-azaspiro[2.5]oct-6-yl)benzamide], the IC50 (OVCAR-3 cells; Homo sapiens, OVCAR-3, 240 h) was 0.05 to 0.5 µM and the IC50 (KIF18A) was ≤ 0.05 µM.

With `O=C(Nc1cccc2c1ccn2CC1CC1(F)F)c1ccc(NS(=O)(=O)CCO)cc1N1CCC2(CC1)CC2` (stereo not shown) [Example 286, N-(1-((2,2-difluorocyclopropyl)methyl)-1H-indol-4-yl)-4-((2-hydroxyethyl)sulfonamido)-2-(6-azaspiro[2.5]oct-6-yl)benzamide] the IC50 (OVCAR-3 cells; Homo sapiens, OVCAR-3, 240 h) was 0.05 to 0.5 µM and the IC50 (KIF18A) was ≤ 0.05 µM.

With `CC1(C)Cn2c(cc3c(NC(=O)c4ccc(NS(=O)(=O)CCO)cc4N4CCC5(CC4)CC5)ccc(OC(F)(F)F)c32)CO1` [Example 573] the IC50 (OVCAR-3 cells; Homo sapiens, OVCAR-3, 240 h) was 0.05 to 0.5 µM and the IC50 (KIF18A) was ≤ 0.05 µM.

For `O=C(Nc1ccc(OC(F)(F)F)c2c1cc1n2CCC(F)(F)C1)c1ccc(NS(=O)(=O)CCO)cc1N1CCC2(CC1)CC2` [Example 582], the IC50 (OVCAR-3 cells; Homo sapiens, OVCAR-3, 240 h) was 0.05 to 0.5 µM and the IC50 (KIF18A) was ≤ 0.05 µM.
